Values belong to the molecule of their own block, whether it stands above or below them.
Experiments:
[1] = physchem
Method: A. Preparation of Stabilizer Solutions:
The 0.5 M solution was not soluble; therefore an additional 2 ml of PPG was added.
An additional 1 ml PPG was added and further water bath sonicated.
The 0.5M solution was soluble after a 20-30 minute water bath sonication.
Very soluble after 10 minute water bath sonication.

[2] = Solubility of coumaric acid in DMSO/water (50% DMSO); format: physicochemical
Method: All stabilizers were prepared so that the final concentration of DMSO was 50%. Dissolve 34.7 mg in 106 μl DMSO, pH ≈3.0 138 μl H2O was added.

[3] = system: porcine heart valve cusps; assay: Example 2: quantification of collagen crosslinks (pyd) by HPLC after gamma irradiation
Method: In this experiment, the effects of gamma irradiation were determined on porcine heart valve cusps in the presence of 50% DMSO and, optionally, a stabilizer, and in the presence of polypropylene glycol 400 (PPG400). 1.6 ml of a solution (stabilizer mixture or PPG400) was added to each sample and then the sample was incubated at 4° C. for 2.5 days. Valves and 1 ml of the solution in which they were incubated were then transferred into 2 ml irradiation vials. Each sample was irradiated with gamma irradiation at a rate of 1.723 kGy/hr at 3.6° C. to a total dose of 25 kGy. 3. Weighed the samples, transferred them to hydrolysis vials and then added 6 N HCl at a volume of 20 mg tissue/ml HCl: 5. Samples were hydrolyzed at 110° C. for approximately 23 hours. 13. Eluted crosslinks with 5 ml 2 N HCl into a low binding tube. 50 ml 2 N HCl:8.6 ml concentrated HCl adjusted to a volume of 50 ml with Nerl H2O. 1. Prepared 100-200 μl 1× solution in 1% heptafluorobutyric acid (HFBA). 2. Injected 50 μl on C18 HPLC column equilibrated with mobile phase. 3. Spectrofluorometer was set for excitation at 295 nm and emission at 395 nm. 4. Calculated the integrated fluorescence of Internal-Pyridinoline (Int-Pyd) per 1 μl of 1× solution of Int-Pyd.

[4] = system: porcine AV heart valve cusps; assay: Example 3: HPLC analysis of frozen gamma irradiated AV heart valve cusps; conditions: 30 kGy, 1.584 kGy/hr, −20° C.
Method: In this experiment, frozen porcine AV heart valves soaked in various solvents were gamma irradiated to a total dose of 30 kGy at 1.584 kGy/hr at −20° C. 5. Added 1.0 ml of the following to two of each of two tubes: dPBS, 50% DMSO and 50% DMSO with 200 mM sodium ascorbate (2M sodium ascorbate stock was diluted as follows: 400 μl (2M)+1.6 ml water+2ml 100% DMSO). 6. Incubated tubes at 4° C. with nutating for ˜46 hours. 8. All vials were frozen on dry ice. 9. Frozen samples were then irradiated at −20° C. at a rate of 1.584 kGy/hr to a total dose of 30 kGy.

- solubility of stabilizer stock in PPG [1]: not 100% soluble
- solubility in DMSO after addition of H2O ([2]; 34.7 mg in 106 μl DMSO, pH ≈3.0, 138 μl H2O added): precipitated out of solution
- solubility in DMSO/H2O after pH adjustment ([2]; pH adjusted to 7.5 with 1 N NaOH): went back into solution
Compound: O=C(O)/C=C/c1ccc(O)cc1 [Coumaric Acid]

Compound: C[S+](C)[O-] [DMSO, dimethylsulfoxide]
- Area of Pyd Peak ([3]; 0 kGy (not irradiated)): 87880
- Area of Pyd Peak ([3]; 25 kGy, 1.723 kGy/hr, 3.6° C.): 49030
- HPLC profile, irradiated versus not irradiated ([3]; 25 kGy, 1.723 kGy/hr, 3.6° C., DMSO at 50%): less effective
- HPLC profile, irradiated versus not irradiated ([4]; 20% DMSO): reproduced these peaks more faithfully
- HPLC profile, irradiated versus not irradiated ([4]; 50% DMSO): slightly more effective

- solubility of stabilizer stock in PPG [1]: not soluble
- solubility ([1]; 25 °C, organic solvent or mixture, thermodynamic from solid): ≥ 125 mM
Compound: Cc1c(C)c2c(c(C)c1O)CCC(C)(C(=O)O)O2 (centres unmarked) [Trolox C, 6-hydroxy-2,5,7,8-tetramethylchroma-2 carboxylic acid]

- solubility of stabilizer stock in PPG [1]: soluble
Compound: CCCOC(=O)c1cc(O)c(O)c(O)c1 [n-Propyl Gallate]

From patent publication US20030124023A1, “Method of sterilizing heart valves” (priority 2001, published 2003)
